Experiment [1] has as its system hedgehog-responsive Gli-Luc reporter-construct. The experiment is described as follows: Gli-Luc hedgehog pathway reporter assay in [10T1/2(s12)] cells. In kind it is cell-based, murine. To be noted: Table 1. The essentials:
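10T1/2(s12) cells carrying a Gli-Luc reporter, switched to 0.5% FBS medium, then exposed to compound for 24 hr; luciferase read by luminescence. Screen A: 1-2 μM with Hh protein at 0.01 μg/ml (about EC30); Screen B: 5 μM without Hh. Activity expressed as percent of full Hh-induced signal.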
In general terms: In a reporter assay the amount or activity of a reporter protein is the signal.

In experiment [2] the test system is neural precursor cells (SVZ and SG). As to the kind of experiment: Neural precursor cell proliferation (BrdU) after oral administration in adult mouse. In kind it is in vivo. The settings on record: 7 days BID, 10 mg/kg or 25 mg/kg. Here is the method: To test whether oral administration of the Hh agonist would affect proliferation of precursor cells, mice were dosed daily (once or twice/day, po) with either vehicle or the Hh agonist X″ for 1-7 days. On the appropriate day, mice were injected with BrdU (ip) and 2 hours later euthanized, perfused with fixative and brains processed for BrdU immunohistochemistry. The number of BrdU-IR cells was counted in both the SVZ and subgranular zone of the hippocampal dentate gyrus (SG).
The data shown in FIGS. 57 and 58 are from a study in which mice were dosed orally for 7 days (BID) with either vehicle (n=4) or Hh agonist X″ (10 mg/kg, n=3 or 25 mg/kg, n=3). The day after the final dose, mice were injected with BrdU and 2 hrs. later brains were collected, processed, and analyzed as described above.

Experiment [3] deals with middle cerebral artery occlusion infarct. As to the kind of experiment: Mouse MCAO model of stroke. In kind it is in vivo. Here is the method: In this animal model, a small suture is inserted into the common carotid artery and threaded directly into the circulatory system of the brain. The suture is placed such that it blocks blood flow though the middle cerebral artery (MCA occlusion), which is the primary source of blood to the forebrain. After a set period of time, here 90 min, the suture is removed and blood flow to the forebrain is restored (reperfusion). The temporary blockage of blood flow to the forebrain results in behavioral symptoms and brain pathology that mimic those seen in human stroke patients. In the brain, within 24 hr post-MCA occlusion an infarct is visible using a stain (TTC) that stains living tissue red and the infarcted area white. The infarct following a 90 min MCAO usually involves both cortical and subcortical brain regions. In this study, mice were treated for 3 days (1/day) prior to MCAO with either vehicle (0.5% methyl cellulose, 0.2% Tween-80/0.9% NaCl, n=12) or the Hh agonist X″ (20 mg/kg, po, n=11). Animals were then subjected to 90 min MCAO followed by reperfusion. Approximately 24 hr after the start of occlusion ([…] of reperfusion) mice were euthanized and the brain sectioned into 2 mm slabs. The brain slices were stained with TTC to show the infarcted area of the brain. The infarct area/total forebrain (% infarct) was analyzed by measured and statistically analyzed. Male mice (7-8 wks of age) were subjected to 90 min MCAO followed by reperfusion. Animals were then treated with either vehicle (n=11) or the Hh agonist X″ (20 mg/kg, po, n=12) at the onset of reperfusion (90 min post-occlusion). Twenty-four hours after the onset of MCAO mice were euthanized, the brain sectioned into 2 mm slabs and slices stained with TTC for infarct size analysis.

Experiment [4] has as its system nigrostriatal pathway (striatal DA and TH). The experiment is described as follows: Mouse MPTP model of Parkinson's disease. The settings on record: pretreatment 0.3, 1, 3, and 10 mg/kg po for 3 days before MPTP; seven days post-lesioning, vs vehicle. In kind it is in vivo.
Experiment [5] concerns malonate induced striatal lesion. The experiment is described as follows: Rat malonate lesion model of Huntington's disease. In kind it is in vivo. The settings on record: 300 μM in Alzet pump into brain ventricles, 1 μl/hr for 6 days pretreatment; vs vehicle, p=0.0159. Here is the method: Malonate is a mitochondrial toxin and defects in mitochondrial energy metabolism are thought to play a role in the pathology of neurodegenerative diseases such as HD. When malonate is injected into the rat striatum a lesion forms in this brain region. The experiments described below tested whether the Hh agonist would reduce the size of the malonate induced striatal lesion. Hh agonist was administered directly into the brain ventricles of male SD rats via a cannula attached to an osmotic Alzet pump. […] After 6 days of pretreatment with compound, malonate was injected directly into the brain striatum and the Alzet pump was removed. Four days later rats were euthanized and the brains were sliced into 2 mm slabs. The slices were placed in a 2% solution (TTC) that stains living tissue red and the striatal infarct white. The size of the infarct (% infarct) was measured using image analysis software and the data were analyzed by one-way ANOVA followed by appropriate post-hoc tests (p<0.05).

Another experiment concerns SVZ precursor cells. The experiment is described as follows: SVZ precursor cell proliferation (BrdU) after direct brain administration in adult rats. In kind it is in vivo, rat. The settings on record: 200 μM in pump into brain ventricles, 0.5 μl/hr for 6 days; p<0.05. Here is the method: Hh agonist was administered directly into the brain ventricles of male SD rats via a cannula attached to an osmotic Alzet pump. The pumps were filled with either vehicle (5% 2-hydroxypropyl-B-cyclodextrin, 4.35% Mannitol, 0.2% DMSO) or Hh agonist (U″ ranging from 10-600 μM) and the pump released compound into the ventricles at constant rate of 0.5 μl/hr for 6 days. After 6 days of pretreatment with compound, animals were injected with Bromodeoxyuridine (BrdU, 50 mg/kg, ip) to label dividing cells. Two hours after BrdU treatment, rats were euthanized and perfused with fixative. Brains were collected and processed for BrdU immunohistochemistry. The number of BrdU-immunoreactive (BrdU-IR) cells was then counted in the SVZ on both the sides of the brain with the cannula (ipsilateral) and without (contralateral).

With `CN[C@H]1CC[C@H](N(Cc2ccc(OC)c(-c3ccc(C#N)cc3)c2)C(=O)c2sc3c(F)ccc(F)c3c2Cl)CC1` [X′′], in experiment [1], the EC50 is less than 5 nM. Further, the “number of proliferating cells in the SG of the dentate gyrus” value in experiment [2] is recorded as “increased the number of proliferating cells in the SG of the dentate gyrus”. In experiment [2] (p<0.05), the “number of BrdU labeled cells in the SVZ” value is recorded as “increased the number of BrdU labeled cells in the SVZ”. Further, the “cortical and subcortical lesion size” value in experiment [3] (post-MCAO treatment 20 mg/kg po at onset of reperfusion) was “dramatically reduced both cortical and subcortical lesion size”. Further, in experiment [3] (post-MCAO treatment 20 mg/kg po at onset of reperfusion, p<0.05), the “size of the infarct” value was “significantly decreased the size of the infarct”. Besides, in experiment [3] (pre-MCAO treatment 20 mg/kg po 1/day for 3 days, p=0.052), the cortical infarct size entry is “marked reduction in cortical infarct size”. For the same molecule, the total infarct size result in experiment [3] (pre-MCAO treatment 20 mg/kg po 1/day for 3 days, p=0.057) is on record as “dramatically reduced”. In addition, the “attenuation of damage to the nigrostriatal pathway (striatal DA and TH activity)” value in experiment [4] is roughly 260%.

Regarding `CN[C@H]1CC[C@H](N(Cc2cccc(-c3ccncc3)c2)C(=O)c2sc3c(F)ccc(F)c3c2Cl)CC1` [U′′], in experiment [1], the EC50 is less than 5 nM. In experiment [5], the “size of malonate-induced infarct (% infarct)” value is “reduced the size of the malonate-induced infarct”. In addition, the “number of BrdU-IR cells in SVZ” value in the experiment on SVZ precursor cells is given as “dramatically increased on both sides of the brain”.

In general, EC50 refers to the concentration needed to bring the measured effect to its halfway point.
